Experiment [1] deals with T1, Short transient receptor potential channel 4 (Mus musculus, UniProt Q9QUQ5).
T1 sequence (Q9QUQ5 whole entry): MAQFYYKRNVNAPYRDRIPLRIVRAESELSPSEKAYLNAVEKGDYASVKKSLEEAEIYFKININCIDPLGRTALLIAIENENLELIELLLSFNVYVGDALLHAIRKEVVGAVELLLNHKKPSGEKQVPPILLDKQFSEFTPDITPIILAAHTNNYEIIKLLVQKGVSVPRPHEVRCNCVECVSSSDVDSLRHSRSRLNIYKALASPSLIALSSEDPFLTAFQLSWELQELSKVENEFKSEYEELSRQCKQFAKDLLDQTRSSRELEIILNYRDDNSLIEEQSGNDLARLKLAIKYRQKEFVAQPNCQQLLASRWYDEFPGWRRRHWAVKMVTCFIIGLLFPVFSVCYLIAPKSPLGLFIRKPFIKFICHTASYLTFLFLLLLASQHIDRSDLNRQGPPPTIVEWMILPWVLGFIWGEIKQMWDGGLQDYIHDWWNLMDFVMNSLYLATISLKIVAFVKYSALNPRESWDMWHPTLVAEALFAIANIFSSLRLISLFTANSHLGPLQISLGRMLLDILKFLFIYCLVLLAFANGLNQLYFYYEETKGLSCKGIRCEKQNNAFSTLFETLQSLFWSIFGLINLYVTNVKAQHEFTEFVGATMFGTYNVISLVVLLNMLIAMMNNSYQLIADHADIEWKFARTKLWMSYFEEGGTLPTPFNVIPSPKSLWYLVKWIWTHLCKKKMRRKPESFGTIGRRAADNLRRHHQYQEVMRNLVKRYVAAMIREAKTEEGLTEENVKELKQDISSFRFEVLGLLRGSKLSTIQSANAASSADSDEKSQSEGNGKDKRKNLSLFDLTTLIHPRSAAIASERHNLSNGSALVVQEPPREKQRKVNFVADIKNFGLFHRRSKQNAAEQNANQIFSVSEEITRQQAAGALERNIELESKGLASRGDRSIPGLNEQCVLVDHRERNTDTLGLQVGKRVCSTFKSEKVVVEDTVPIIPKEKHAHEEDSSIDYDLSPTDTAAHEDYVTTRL
Briefly: mouse TRPC4 channel inhibitors, dose response, cell-based, HEK293 TRPC4/mu-opioid, Fluo-4 calcium (AID 434942).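 Note: potency of inhibitors blocking the TRPC4 calcium response.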 It is filed as functional.

Experiment [2] has as its target T2, DNA repair and recombination protein RAD54-like (Homo sapiens, UniProt Q92698).
T2 sequence (Q92698 whole entry): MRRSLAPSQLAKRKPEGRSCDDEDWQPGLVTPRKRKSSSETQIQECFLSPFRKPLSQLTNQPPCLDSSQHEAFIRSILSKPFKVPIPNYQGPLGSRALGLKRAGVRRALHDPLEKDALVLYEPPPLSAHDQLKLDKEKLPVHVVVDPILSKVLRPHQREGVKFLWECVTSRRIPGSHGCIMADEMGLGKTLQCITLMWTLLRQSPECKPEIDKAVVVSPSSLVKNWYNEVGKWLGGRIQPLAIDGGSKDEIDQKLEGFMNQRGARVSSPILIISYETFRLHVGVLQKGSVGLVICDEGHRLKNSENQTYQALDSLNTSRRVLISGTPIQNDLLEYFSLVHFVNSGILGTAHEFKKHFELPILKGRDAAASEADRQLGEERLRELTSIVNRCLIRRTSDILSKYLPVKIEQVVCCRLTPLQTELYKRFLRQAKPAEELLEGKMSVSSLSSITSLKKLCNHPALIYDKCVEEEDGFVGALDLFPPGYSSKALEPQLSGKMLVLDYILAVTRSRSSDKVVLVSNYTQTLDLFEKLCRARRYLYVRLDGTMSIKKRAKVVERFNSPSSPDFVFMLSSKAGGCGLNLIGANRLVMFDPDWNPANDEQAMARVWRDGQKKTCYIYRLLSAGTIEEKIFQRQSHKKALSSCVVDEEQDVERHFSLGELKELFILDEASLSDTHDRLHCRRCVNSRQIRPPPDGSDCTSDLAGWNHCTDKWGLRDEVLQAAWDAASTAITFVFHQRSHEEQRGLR
In words: inhibitors of human RAD54 branch migration, confirmation, biochemical, fluorescence, cherry-picked samples, dose series (AID 651657). It is filed as functional.

The target in experiment [3] is T3, Polyadenylate-binding protein 1 (Homo sapiens, UniProt P11940). In words: PABP1 MLLE–PAM2 interaction inhibitors, dose response, miRNA deadenylation inhibitor project, biochemical, fluorescence polarization, Cy5-PAM2 peptide, secondary (AID 602260). It is filed as functional. Particulars: read-out: IC50_Mean. For orientation: Fluorescence polarisation rises when a labelled molecule tumbles more slowly, as on binding a larger partner.

The target of experiment [4] is T3, Polyadenylate-binding protein 1. In words: PABP1 MLLE–PAM2 binding inhibitor potency, dose response, biochemical, fluorescence polarization, FITC-PAM2 peptide (AID 602259). It is filed as functional. The settings on record: read-out: IC50_Mean.
Experiment [5] has as its system BJ. Briefly: cytotoxicity toward BJ-TERT fibroblasts, dose response, cell-based, RAS-independent, luminescence (AID 1933). Particulars: Homo sapiens. It is filed as functional.
Experiment [6] has as its system BJ. Briefly: cells. It is filed as functional, cell-based. Particulars: Homo sapiens.
Experiment [7] relates to BJ. In words: cytotoxicity toward BJ-TERT-LT-ST fibroblasts, dose response, cell-based, RAS-independent, luminescence (AID 1935).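 Note: BJ fibroblasts immortalized with TERT plus LT and ST oncogenes.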 Particulars: Homo sapiens. It is filed as functional.
A short description of experiment [8]: cytotoxicity toward DRD oncogenic fibroblasts, dose response, cell-based, non-viral oncogenic, luminescence (AID 1934). It is filed as functional. The settings on record: Homo sapiens.
The target in experiment [9] is T4, Replicative DNA helicase DnaB (Mycobacterium tuberculosis, UniProt P9WMR3).
T4 sequence (P9WMR3 whole entry): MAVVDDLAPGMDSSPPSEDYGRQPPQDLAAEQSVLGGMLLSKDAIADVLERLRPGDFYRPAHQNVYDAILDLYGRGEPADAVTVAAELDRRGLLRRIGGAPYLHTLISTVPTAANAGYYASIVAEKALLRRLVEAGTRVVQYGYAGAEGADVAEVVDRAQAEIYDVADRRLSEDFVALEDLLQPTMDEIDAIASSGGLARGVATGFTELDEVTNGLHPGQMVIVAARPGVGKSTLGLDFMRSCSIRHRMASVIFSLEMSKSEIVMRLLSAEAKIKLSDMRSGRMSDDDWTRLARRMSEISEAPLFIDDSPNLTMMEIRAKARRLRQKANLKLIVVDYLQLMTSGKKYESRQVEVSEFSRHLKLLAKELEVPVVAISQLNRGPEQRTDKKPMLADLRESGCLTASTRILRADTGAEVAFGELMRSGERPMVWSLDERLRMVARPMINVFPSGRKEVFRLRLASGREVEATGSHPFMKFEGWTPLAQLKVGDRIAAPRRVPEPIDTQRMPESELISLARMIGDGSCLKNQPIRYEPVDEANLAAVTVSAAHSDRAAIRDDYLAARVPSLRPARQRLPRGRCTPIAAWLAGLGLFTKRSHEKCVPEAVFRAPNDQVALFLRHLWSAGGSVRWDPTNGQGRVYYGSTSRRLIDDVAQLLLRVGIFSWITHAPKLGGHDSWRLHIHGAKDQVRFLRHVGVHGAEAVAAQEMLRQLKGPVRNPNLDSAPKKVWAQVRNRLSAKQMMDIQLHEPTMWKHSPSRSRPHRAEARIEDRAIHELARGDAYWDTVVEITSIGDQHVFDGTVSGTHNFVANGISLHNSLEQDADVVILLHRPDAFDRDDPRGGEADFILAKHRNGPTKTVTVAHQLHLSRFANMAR
Briefly: DnaB intein splicing inhibitors, dose response, biochemical, cell-free fluorescence (AID 449749). It is filed as functional.

The next experiment deals with T5, Protein RecA (Mycobacterium tuberculosis, UniProt P9WHJ3).
T5 sequence (P9WHJ3 whole entry): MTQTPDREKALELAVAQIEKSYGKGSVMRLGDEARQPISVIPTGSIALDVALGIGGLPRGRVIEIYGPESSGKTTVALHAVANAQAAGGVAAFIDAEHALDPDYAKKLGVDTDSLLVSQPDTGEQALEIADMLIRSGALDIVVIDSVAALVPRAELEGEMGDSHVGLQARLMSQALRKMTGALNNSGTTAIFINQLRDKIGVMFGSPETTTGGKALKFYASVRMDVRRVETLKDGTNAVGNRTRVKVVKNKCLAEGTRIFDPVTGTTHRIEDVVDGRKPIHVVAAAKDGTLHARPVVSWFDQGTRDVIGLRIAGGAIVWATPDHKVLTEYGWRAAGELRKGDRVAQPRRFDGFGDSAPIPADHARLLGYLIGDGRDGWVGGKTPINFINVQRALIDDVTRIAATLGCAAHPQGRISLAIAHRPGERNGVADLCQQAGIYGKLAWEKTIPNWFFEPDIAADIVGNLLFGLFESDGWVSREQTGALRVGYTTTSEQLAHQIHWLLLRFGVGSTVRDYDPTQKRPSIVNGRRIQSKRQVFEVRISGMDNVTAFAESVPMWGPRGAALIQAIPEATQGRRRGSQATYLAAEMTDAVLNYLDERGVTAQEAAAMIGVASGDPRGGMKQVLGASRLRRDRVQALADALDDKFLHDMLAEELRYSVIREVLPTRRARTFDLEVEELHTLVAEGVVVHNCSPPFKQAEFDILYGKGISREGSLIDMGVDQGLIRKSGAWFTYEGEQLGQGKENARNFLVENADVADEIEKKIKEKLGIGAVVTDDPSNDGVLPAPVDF
In words: Fluorescence Cell-Free Homogeneous Dose Retest to Identify Inhibitors of RecA-Intein Splicing Activity. [Related pubchem assays (depositor defined):AID2097, AID2223, AID489010, AID492950]. It is filed as functional.

Experiment [10] is described as follows: Luminescence Cell-Based Dose Retest to Confirm Inhibitors of Cancer Stem Cells. [Related pubchem assays (depositor defined):AID2717, AID2721]. It is filed as functional. Particulars: Homo sapiens.
In experiment [11] the target is T6, Heat shock factor protein 1 (Mus musculus, UniProt P38532).
T6 sequence (P38532 whole entry): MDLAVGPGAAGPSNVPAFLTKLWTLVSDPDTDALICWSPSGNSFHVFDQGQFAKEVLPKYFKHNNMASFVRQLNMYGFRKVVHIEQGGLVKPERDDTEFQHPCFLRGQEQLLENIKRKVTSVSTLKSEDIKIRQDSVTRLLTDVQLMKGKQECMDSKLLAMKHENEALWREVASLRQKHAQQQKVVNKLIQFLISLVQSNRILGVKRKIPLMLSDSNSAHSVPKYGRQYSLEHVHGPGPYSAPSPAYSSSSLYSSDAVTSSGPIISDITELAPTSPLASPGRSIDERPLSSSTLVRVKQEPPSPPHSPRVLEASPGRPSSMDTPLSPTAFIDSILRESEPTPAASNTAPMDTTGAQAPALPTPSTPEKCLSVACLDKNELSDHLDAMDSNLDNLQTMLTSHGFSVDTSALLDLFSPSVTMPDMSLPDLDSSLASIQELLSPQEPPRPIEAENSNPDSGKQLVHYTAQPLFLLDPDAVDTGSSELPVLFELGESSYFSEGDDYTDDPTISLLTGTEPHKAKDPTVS
Briefly: HSF1 potentiators in luciferase reporter cells, confirmation, cell-based, NIH3T3, luminescence, dose retest (AID 435004).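 Note: stress induced by proteasome inhibitor MG132 added 30 min after compound; luciferase reporter driven by HSF1 response element in NIH3T3 cells; actives raise luminescence as potentiators of the MG132 stress response.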 It is filed as functional. (Reporter assays use an easily measured gene product as a stand-in for the process of interest.)

The target in another experiment is Genome polyprotein (dengue virus type 2, UniProt P29990). Briefly: Dengue-2 NS5 methyltransferase inhibitors, primary screen, biochemical, confirmation dose response (AID 588689). It is filed as functional.

For 14 compounds, EC50, AC50 and IC50 results are on record in ChEMBL document CHEMBL1201862, “PubChem BioAssay data set” (2004).

Molecules are shown by their SMILES. Active and inactive are the calls of the source.

In general, EC50 refers to the concentration that produces a half-maximal response. What is called AC50 is the concentration giving half of the maximal activity seen.

T3 sequence (P11940 whole entry): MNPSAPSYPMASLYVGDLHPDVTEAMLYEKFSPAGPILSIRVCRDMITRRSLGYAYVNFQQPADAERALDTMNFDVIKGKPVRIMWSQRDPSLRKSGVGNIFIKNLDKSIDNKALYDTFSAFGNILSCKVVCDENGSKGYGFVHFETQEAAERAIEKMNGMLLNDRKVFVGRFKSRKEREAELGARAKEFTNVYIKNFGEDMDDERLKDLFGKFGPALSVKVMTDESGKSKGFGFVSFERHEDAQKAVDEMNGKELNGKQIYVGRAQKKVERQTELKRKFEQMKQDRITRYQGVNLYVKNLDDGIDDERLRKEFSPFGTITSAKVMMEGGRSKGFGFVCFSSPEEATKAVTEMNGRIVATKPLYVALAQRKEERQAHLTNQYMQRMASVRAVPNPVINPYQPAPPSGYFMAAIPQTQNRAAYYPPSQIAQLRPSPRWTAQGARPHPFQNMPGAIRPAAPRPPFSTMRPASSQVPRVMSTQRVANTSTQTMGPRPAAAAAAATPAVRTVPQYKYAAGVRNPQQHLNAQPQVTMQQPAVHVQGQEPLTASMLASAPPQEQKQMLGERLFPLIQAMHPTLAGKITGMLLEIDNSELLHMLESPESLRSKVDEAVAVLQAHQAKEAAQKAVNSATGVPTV
Sequence of Genome polyprotein (P29990 2492-3391 limits assumed): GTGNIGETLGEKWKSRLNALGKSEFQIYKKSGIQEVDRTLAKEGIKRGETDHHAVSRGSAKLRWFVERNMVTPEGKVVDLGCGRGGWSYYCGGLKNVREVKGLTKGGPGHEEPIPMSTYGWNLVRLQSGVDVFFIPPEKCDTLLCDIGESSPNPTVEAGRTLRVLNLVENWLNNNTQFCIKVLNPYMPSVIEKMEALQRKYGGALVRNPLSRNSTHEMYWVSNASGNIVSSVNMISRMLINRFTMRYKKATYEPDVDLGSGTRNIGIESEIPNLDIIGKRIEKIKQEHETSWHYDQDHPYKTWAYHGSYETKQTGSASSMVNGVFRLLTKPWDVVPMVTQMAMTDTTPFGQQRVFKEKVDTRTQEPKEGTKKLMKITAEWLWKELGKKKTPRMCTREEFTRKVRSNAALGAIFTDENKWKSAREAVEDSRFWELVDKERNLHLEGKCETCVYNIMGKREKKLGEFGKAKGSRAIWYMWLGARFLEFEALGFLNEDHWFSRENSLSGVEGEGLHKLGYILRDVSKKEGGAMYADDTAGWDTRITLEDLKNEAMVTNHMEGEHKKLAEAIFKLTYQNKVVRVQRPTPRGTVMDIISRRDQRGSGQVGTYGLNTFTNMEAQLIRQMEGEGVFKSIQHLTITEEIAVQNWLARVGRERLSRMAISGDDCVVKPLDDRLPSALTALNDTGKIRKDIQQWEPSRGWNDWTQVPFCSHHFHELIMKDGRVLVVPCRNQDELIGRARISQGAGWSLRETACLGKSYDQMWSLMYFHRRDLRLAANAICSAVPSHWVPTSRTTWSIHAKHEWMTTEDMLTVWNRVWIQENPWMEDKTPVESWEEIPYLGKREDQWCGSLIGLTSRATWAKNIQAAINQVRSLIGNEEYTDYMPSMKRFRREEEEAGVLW

As for `CCn1cc(CN2CCCC(CO)(Cc3cccc(Cl)c3)C2)cn1` (stereo unspecified), in experiment [1], the EC50 is 5.96 µM (active).

As for `Cc1ccc(C(=O)NC(=S)Nc2c(C)ccc3nsnc23)cc1`, the EC50 in experiment [1] is 5.96 µM (active).

Turning to `Cc1ccc(C)c2nc3sc(C(=O)O)cc3cc12`, the EC50 in experiment [1] is 5.31 µM (active).

As for `Cc1c(O)c(CN(C)C)cc2c1oc(=O)c1ccccc12`, in experiment [2], the AC50 was 35.5 µM (active).

As for `CCC(O)C1CCN(Cc2cn(-c3ccc(OC)cc3)nc2-c2cccc(F)c2)CC1` (stereo unspecified), in experiment [1], the EC50 is 10.6 µM (active).

As for `CCCCN(C)CCNC(=O)c1cc2cc3ccc(OC)cc3nc2o1`, the AC50 in [2] is 50.9 µM (active).

Take `CCOC(=O)c1cc(-c2ccc(OC)cc2)nc2c1c(C)nn2CCC(N)=S`: the IC50 in experiment [3] and in experiment [4] was > 66 µM (inactive) in each case.

With `CCC(C)[C@H](NC(=O)C1CC(=O)N(c2ccc3c(c2)OCO3)C1)C(=O)NC1CCCCC1` (stereo partly specified), the figures for the IC50 in [3] and in experiment [4] were > 66 µM (inactive) and 54.9 µM (inactive), respectively.

Take `CCOc1ccc(Cn2c(SCCCCC#N)nc3c2c(=O)n(C)c(=O)n3C)cc1OCC`: the IC50 in [3] and in experiment [4] was > 66 µM (inactive) throughout.

For `Brc1ccc(CN2C3=NCCCN3c3ccccc32)cc1`, in experiment [1], the EC50 is 0.531 µM (active).

On to `O=C(NC1CCCC1)C(c1ccc(Cl)cc1)N(Cc1ccc(F)cc1)C(=O)CCl` (stereo unspecified), for which the EC50 was 7.08 µM (inconclusive) with BJ [5]; 16.4 µM (active) in the experiment with BJ [6]; > 150 µM (inconclusive) with BJ [7]; 10.5 µM (inconclusive) in [8]; 1.07 µM (active) at Protein RecA. The AC50 in experiment [9] is 1.16 µM (active).

Regarding `O=C(NCCN1CCOCC1)c1ccc2c(c1)N(Cc1ccc(F)cc1)C(=O)CS2`, the half-maximal effective concentration (EC50) in experiment [1] was 4.73 µM (active).

For `CCCn1nc([N+](=O)[O-])c(C(C#N)c2nc3ccccc3o2)c(Cl)c1=O` (stereo unspecified), the AC50 in experiment [10] is 4.55 µM (active). Moreover, the figures for the EC50 in [1] and in [11] were 6.68 µM (active) and > 260 µM (inactive), respectively. Further, the IC50 on Genome polyprotein was 34.7 µM (active).

Turning to `CCOC(=O)c1cnc2ccc(OC)cc2c1Nc1ccc(N2CCN(C)CC2)cc1`, the EC50 in experiment [11] is > 260 µM (inactive). In experiment [2], the AC50 was 34 µM (active).
